Where two headings read alike, the source gives them in different places.
Target: T1, Human TREM2 (Homo sapiens, UniProt Q9NZC2)
T1 construct: expressed in transfected cells
Test: Human TREM2 activity: cellular phosphorylation of Syk (AlphaLISA SureFire Ultra p-SYK) in HEK293/DAP12+TREM2 stable cell line
Format: cell-based
Settings: for EC50: phospho-Syk AlphaLISA signal, HEK293/DAP12+TREM2 cells, concentration giving 50% of maximal response, read-out: EC50
Excerpt: Human TREM2, in vitro Measurement of Triggering Receptor Expressed on Myeloid Cells 2 activity using cellular phosphorylation of Spleen Tyrosine Kinase (“Syk”) Assay
HEK-293 cells were co-transfected with separate plasmids encoding TREM2 and DAP12 to generate a stable cell line. After antibiotic selection, functional clone pool analysis and two successive limiting dilutions, the final clone “HEK293/DAP12+TREM2” underwent a qPCR analysis and a pharmacological validation.
TREM2 signaling through DAP12 was monitored in the HEK293/DAP12+TREM2 stable cell line by measuring the phosphorylation levels of the Syk kinase using the commercially available AlphaLISA SureFire Ultra p-SYK (Tyr525/526) Assay Kit (PerkinElmer #ALSU-PSYK), based on the Perkin Elmer AlphaScreen/AlphaLISA technology.
Compounds are transferred to the test plate and tested in full dose response, 8 concentrations in quadruplicate data points. Compound serial dilutions were performed at Cybi-Felix instrument in 100% DMSO and the dose response curves were assembled in automated fashion in 384MPT at Hamilton STARlet instrument. All the stock solutions were prepared at 20 mM in 100% DMSO. For compounds testing, the starting concentration was 100 μM, dilution steps 1:6. […] Finally, a 384MPT reformatted for all compounds at 8 concentrations, quadruplicates, was used as “mother to child” process with a CyBi®-Well dispenser in which 1 μL of each compound was moved into a destination plate pre-filled with 65.6 μL of EMEM cell culture medium (BIOWHITTAKER_cat.BE12-125F), thus obtaining 3× concentrated compounds working solution. In columns 1-2 and 23-24 the control wells were added. In particular, dose response curves of a reference control agonist were included in column 1 and 24 as reference control agonist (Reference control agonists used include Human TREM2 polyclonal Antibody AF1828: R&D Systems; Human TREM2 monoclonal Antibody MAB1828: R&D Systems). The dose response curves were tested starting at 30 μM, dilution step 1:6. Both “source” compound plate and “destination” compound plate were barcoded and a relationship between the two plates was thus generated.
HEK293/DAP12+TREM2 cells were cultured in EMEM medium supplemented with IX Penicillin/Streptomycin (BIOWHITTAKER_cat.DE17-602E), ULTRAGLUTAMINE I 200 mM, 10% Fetal Bovine Serum plus antibiotics referred to as “HEK293 Culture Medium”. The day before the experiment, cells were detached by gentle wash with DPBS, followed by 5 min incubation at 37° C. with Trypsin solution. Cells were then diluted in HEK293 Culture Medium without antibiotics, counted and seeded into 384-well poly-D-Lysine coated microplates black/clear bottom (GREINER 781946) at a density of 10,000 cells/well in 25 μL/well by the use of a MATRIX WellMate dispenser. Plates were placed into a humidified cell culture incubator at 37° C. with 5% CO2 until the experimental day. 20-24 hours after seeding mature medium was removed and replaced with 10 μL/well of EMEM cell medium supplemented with 0.1% Pluronic F-68 non-ionic surfactant (Thermofisher, 24040032), referred to as “Assay Buffer”, using the CyBi®-Well instrument. Then 5 μL/well of Assay Buffer containing 3× concentrated test compounds or the reference control agonist (in 0.5% final DMSO concentration) were added to the cells with the CyBi®-Well instrument. Cell plates were incubated for 30 min into a humidified cell culture incubator at 37° C. with 5% CO2·, then the medium was removed by manually discard. 20 μL/well of lysis buffer were dispensed using the CyBi®-Well instrument and plates were incubated for 10 min at room temperature on a plate shaker (350 rpm). Then, 10 μL/well of lysate were transferred to the Alpha plates. The CyBi®-Well instrument was used to dispense 5 μL/well of AlphaLISA Acceptor Bead Solution in IX Immunoassay buffer (Perkin Elmer AL000F). Then the plates were sealed with Heat sealing foil, shaked for 2 minutes (350 rpm) and incubated for 1 hour at room temperature.

[1] = HEK293, maximal response relative to reference agonist example 1B (remaining examples), read-out: Emax
[2] = HEK293, maximal response relative to reference agonist human TREM2 MAB1828 (examples 1, 1A and 1B), read-out: Emax

T1 sequence (Q9NZC2 19-230): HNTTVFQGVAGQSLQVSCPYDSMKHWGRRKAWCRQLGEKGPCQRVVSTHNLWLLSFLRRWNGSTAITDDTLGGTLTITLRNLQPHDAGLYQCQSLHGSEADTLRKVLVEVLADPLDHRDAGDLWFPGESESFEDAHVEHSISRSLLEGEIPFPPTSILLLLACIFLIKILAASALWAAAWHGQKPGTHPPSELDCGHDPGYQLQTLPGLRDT
T1 sequence (O43914 22-113 partner): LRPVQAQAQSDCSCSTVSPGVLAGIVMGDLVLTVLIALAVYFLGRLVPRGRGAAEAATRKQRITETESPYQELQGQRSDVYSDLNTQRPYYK

Row | Compound | Emax (maximal response relative to reference agonist example 1B (remaining examples)) | EC50 [nM] | Emax [1] [%] | Emax [2] [%]
1 | 6-((2R,4S)-2-(1-cyclopropyl-1H-pyrazol-4-yl)tetrahydro-2H-pyran-4-yl)-8-(2-fluoro-4-(trifluoromethyl)phenyl)-2,3-dimethylquinazolin-4 (3H)-one [Example 120B] | ++ (75-110%) | 10 to 100 | – | –
2 | Cc1nc2c(-c3ccc(Cl)cc3F)nc([C@H]3CCO[C@@H](c4cnn(C5CC5)c4)C3)nc2c(=O)n1C (racemic) [Example 14, 8-(4-chloro-2-fluorophenyl)-6-((2R,4S)-2-(1-cyclopropyl-1H-pyrazol-4-yl)tetrahydro-2H-pyran-4-yl)-2,3-dimethylpyrimido[5,4-d]pyrimidin-4 (3H)-one] | – | 100 to 1000 | 75 to 110 | –
3 | Cc1nc2c(-c3ccc(C(F)(F)F)nc3)nc(N3CCOC(c4cnn(C5CC5)c4)C3)nc2c(=O)n1C (racemic) [Example 19, 6-(2-(1-cyclopropyl-1H-pyrazol-4-yl)morpholino)-2,3-dimethyl-8-(6-(trifluoromethyl)pyridin-3-yl)pyrimido[5,4-d]pyrimidin-4 (3H)-one] | – | 10 to 100 | < 75 | –
4 | Cc1ncc([C@H]2C[C@@H](c3nc(-c4ccc(Cl)cc4F)c4nc(C)n(C)c(=O)c4n3)CCO2)cn1 (racemic) [Example 37, 8-(4-chloro-2-fluorophenyl)-2,3-dimethyl-6-((2R,4S)-2-(2-methylpyrimidin-5-yl)tetrahydro-2H-pyran-4-yl)pyrimido[5,4-d]pyrimidin-4 (3H)-one] | – | 100 to 1000 | 75 to 110 | –
5 | Cc1nc2c(-c3ccc(F)cc3F)nc(N3CC(C)OC(c4cnn(C5CC5)c4)C3)nc2c(=O)n1C (racemic) [Example 177C, 6-(2-(1-cyclopropyl-1H-pyrazol-4-yl)-6-methylmorpholino)-8-(2,4-difluorophenyl)-2,3-dimethylpyrimido[5,4-d]pyrimidin-4 (3H)-one] | – | 100 to 1000 | < 75 | –
6 | Cc1nc2c(-c3ccc(Cl)cc3F)nc(N3CCO[C@H](c4cnn(C)c4)C3)nc2c(=O)n1C (single isomer, unassigned) [Example 1A] | – | 100 to 1000 | – | 75 to 110
7 | Cc1nc2c(-c3ccc(Cl)cc3F)nc(N3CCO[C@@H](c4cnn(C)c4)C3)nc2c(=O)n1C (single isomer, unassigned) [Example 1B] | – | 10 to 100 | – | > 110
8 | Cc1nc2c(-c3ccc(C(F)(F)F)cc3F)nc(N3CCO[C@H](c4cnn(C5CC5)c4)C3)nc2c(=O)n1C (single isomer, unassigned) [Example 20A] | – | 10 to 100 | 75 to 110 | –
9 | Cc1nc2c(-c3ccc(C(F)(F)F)cc3F)nc(N3CCO[C@@H](c4cnn(C5CC5)c4)C3)nc2c(=O)n1C (single isomer, unassigned) [Example 20B] | – | 1 to 10 | 75 to 110 | –
10 | Cc1cc([C@@H]2CN(c3nc(-c4ccc(C(F)(F)F)cc4F)c4nc(C)n(C)c(=O)c4n3)CCO2)ccn1 (single isomer, unassigned) [Example 21A] | – | 10 to 100 | 75 to 110 | –
11 | Cc1cc([C@H]2CN(c3nc(-c4ccc(C(F)(F)F)cc4F)c4nc(C)n(C)c(=O)c4n3)CCO2)ccn1 (single isomer, unassigned) [Example 21B] | – | < 1 | 75 to 110 | –
12 | Cc1cc([C@@H]2CN(c3nc(-c4ccc(C(F)(F)F)nc4)c4nc(C)n(C)c(=O)c4n3)CCO2)ccn1 (single isomer, unassigned) [Example 22A] | – | 100 to 1000 | 75 to 110 | –
13 | Cc1cc([C@H]2CN(c3nc(-c4ccc(C(F)(F)F)nc4)c4nc(C)n(C)c(=O)c4n3)CCO2)ccn1 (single isomer, unassigned) [Example 22B] | – | 1 to 10 | 75 to 110 | –
14 | Cc1cc([C@@H]2CN(c3nc(-c4ccc(Cl)cc4F)c4nc(C)n(C)c(=O)c4n3)CCO2)ccn1 (single isomer, unassigned) [Example 23A] | – | 10 to 100 | < 75 | –
15 | Cc1cc([C@H]2CN(c3nc(-c4ccc(Cl)cc4F)c4nc(C)n(C)c(=O)c4n3)CCO2)ccn1 (single isomer, unassigned) [Example 23B] | – | 1 to 10 | 75 to 110 | –
16 | Cc1nc2c(-c3ccc(Cl)cc3F)nc([C@@H]3CCO[C@H](c4cnn(C5CC5)c4)C3)nc2c(=O)n1C (single isomer, unassigned) [Example 24A] | – | 1 to 10 | 75 to 110 | –
17 | Cc1nc2c(-c3ccc(Cl)cc3F)nc([C@H]3CCO[C@@H](c4cnn(C5CC5)c4)C3)nc2c(=O)n1C (single isomer, unassigned) [Example 24B] | – | 100 to 1000 | < 75 | –
18 | Cc1nc2c(-c3ccc(C(F)(F)F)cc3F)nc(N3CCO[C@H](c4cnn(C)c4)C3)nc2c(=O)n1C (single isomer, unassigned) [Example 25A] | – | 10 to 100 | < 75 | –
19 | Cc1nc2c(-c3ccc(C(F)(F)F)cc3F)nc(N3CCO[C@@H](c4cnn(C)c4)C3)nc2c(=O)n1C (single isomer, unassigned) [Example 25B] | – | 10 to 100 | < 75 | –
20 | Cc1nc2c(-c3ccc(Cl)cc3F)nc(N3CCO[C@H](c4cnn(C5CC5)c4)C3)nc2c(=O)n1C (single isomer, unassigned) [Example 26A] | – | 10 to 100 | 75 to 110 | –
21 | Cc1nc2c(-c3ccc(Cl)cc3F)nc(N3CCO[C@@H](c4cnn(C5CC5)c4)C3)nc2c(=O)n1C (single isomer, unassigned) [Example 26B] | – | 1 to 10 | 75 to 110 | –
22 | Cc1nc2c(-c3cc(F)c(F)cc3F)nc(N3CCO[C@H](c4cnn(C)c4)C3)nc2c(=O)n1C (single isomer, unassigned) [Example 27A] | – | 10 to 100 | < 75 | –
23 | Cc1nc2c(-c3cc(F)c(F)cc3F)nc(N3CCO[C@@H](c4cnn(C)c4)C3)nc2c(=O)n1C (single isomer, unassigned) [Example 27B] | – | 10 to 100 | 75 to 110 | –
24 | Cc1nc2c(-c3ccc(C(F)(F)F)nc3)nc(N3CCO[C@H](c4cnn(C)c4)C3)nc2c(=O)n1C (single isomer, unassigned) [Example 28A] | – | > 1000 | 75 to 110 | –
25 | Cc1nc2c(-c3ccc(C(F)(F)F)nc3)nc(N3CCO[C@@H](c4cnn(C)c4)C3)nc2c(=O)n1C (single isomer, unassigned) [Example 28B] | – | 10 to 100 | 75 to 110 | –
26 | Cc1nc2c(-c3cc(F)c(F)cc3F)nc([C@@H]3CCO[C@H](c4cnn(C)c4)C3)nc2c(=O)n1C (single isomer, unassigned) [Example 38A] | – | 100 to 1000 | < 75 | –
27 | Cc1nc2c(-c3ccc(C(F)(F)F)cc3F)nc([C@@H]3CCO[C@H](c4cnn(C)c4)C3)nc2c(=O)n1C (single isomer, unassigned) [Example 65] | – | 10 to 100 | 75 to 110 | –
28 | Cc1nc2c(-c3ccc(C(F)(F)F)cc3F)nc([C@H]3CCO[C@@H](c4cnn(C)c4)C3)nc2c(=O)n1C (single isomer, unassigned) [Example 66] | – | > 1000 | 75 to 110 | –
29 | Cc1nc2c(-c3ccc(Cl)cc3F)nc([C@@H]3CCO[C@H](c4cnn(C)c4)C3)nc2c(=O)n1C (single isomer, unassigned) [Example 67] | – | 100 to 1000 | > 110 | –
30 | Cc1nc2c(-c3ccc(Cl)cc3F)nc([C@H]3CCO[C@@H](c4cnn(C)c4)C3)nc2c(=O)n1C (single isomer, unassigned) [Example 68] | – | > 1000 | 75 to 110 | –

Reference: patent US20260200926A1, “TREM2 MODULATORS” (Muna Therapeutics ApS, priority 2022, published 2026)
